In EP1125946A1, “Cell adhesion therapy through modulation of a Rap family member or of a GEF (guanine nucleotide exchange factor)” (Universitair Medisch Centrum Utrecht, priority 2000, dated 2001):

What was measured:
LFA-1 = assay: flow cytometry of mAB 24 epitope expression on Jurkat cells; assay type: cell-based; settings: Jurkat cells coincubated with mAB 24 and 400 µM MnCl2; relative to unstimulated
Description: The anti-aL integrin antibody mAB 24 recognizes a conformation-dependent ligand-induced epitope on LFA-1, and induction of the mAB 24 epitope correlates with increased LFA-1 affinity for ICAM (Dransfield and Hogg, 1989). […] This conformational change can also be induced by LFA-1 exposure to Mn^2+, independently of "inside-out" signalling. […] Incubation of cells with mAB 24 at 4°C abolished CD31 and Mn^2+ -induced mAB 24 expression to background levels (data not shown), consistent with the temperature-sensitivity of the mAB 24 epitope (Dransfield and Hogg, 1989). […]
Flow cytometric analysis of transfected cells was performed by cotransfecting Jurkat JHMI cells with […] pCMV-EGFP C1 plasmid (Promega) and the indicated cDNA constructs. […] Fluorescence intensity of EGFP-transfected cells was determined using a FACsCaliber flow cytometer and CellQuest software (both from Becton Dickinson).
Figure 4. […] Cells were sequentially stained with anti-b2 integrin antibody L15 and rabbit anti-mouse Ig-RPE-Cy5 conjugate, and GFP-expressing cells analysed by flow cytometry. […] Alternatively, unstimulated cells were coincubated with mAB 24 and 400 µM MnCl2 (Mn). mAB 24 expression was assessed by flow cytometry, and expression levels normalized to 1 for unstimulated GFP-alone cells in each experiment. […]

Rap1 = assay: GTP-bound GTPase pull-down with GST-RalGDS-RBD and immunoblotting in Jurkat cells; assay type: cell-based; settings: Jurkat JHMI 2.2 cells; TPA 100 ng/ml, 5 minutes
Source text: (§1) To address which Ras family members, if any, might participate in CD31 signaling, we precipitated endogenous GTPases from lysates of CD31-stimulated Jurkat with GST fusion proteins of Ras family-binding domains (RBDs) of Raf and RalGDS, which bind with high selectivity and specificty to activated Ras and Rap GTPases, respectively (de Rooij and Bos, 1997; Franke et al., 1997). Immunoblotting of precipitated GTPases provides a qualitative representation of GTPase activation status following cell stimulation, corresponding to quantitative changes detected using classical GDP/GTP-binding ratio techniques. […] GTP-bound R-Ras was detected in Raf-RBD pull-downs only following longer exposures of films, reflecting the relatively low levels of R-Ras protein expression in Jurkat. […]
Figure 1. […] Bound GTPases were resolved on SDS-PAGE, transferred to PVDF membrane, and detected by immunoblotting with antibodies against the indicated proteins, followed by enhanced chemiuminescence (ECL). […] Fold activation of Rap1 compared to untreated cells was obtained by quantitating pixels from representative blots using Adobe Photoshop software. […] CD31 WT, CD31 GPI, and Y663/686F Jurkat cell lines were stimulated for two minutes with medium (-) or 10 µg/ml PECAM 1.3 antibody and activated Rap1 detected as in A. Results shown in each panel are representative of three independent experiments.

Ras = assay: GTP-bound GTPase pull-down with GST-Raf-RBD and immunoblotting in Jurkat cells; assay type: cell-based; settings: Jurkat JHMI 2.2 cells, time-course; TPA 100 ng/ml, 5 minutes
Source text: as §1
Figure 1. […] Bound GTPases were resolved on SDS-PAGE, transferred to PVDF membrane, and detected by immunoblotting with antibodies against the indicated proteins, followed by enhanced chemiuminescence (ECL). […] JHMI cells were activated for 2 minutes with medium (-), anti-CD3 antibody T3b (1:200) or the indicated anti-CD31 antibodies (10 µg/ml), and Rap1 activation detected as in A. Fold activation of Rap1 compared to untreated cells was obtained by quantitating pixels from representative blots using Adobe Photoshop software. […]

full length CalDAG-GEF 1 = target: T1, full length CalDAG-GEF 1 (Homo sapiens, UniProt Q7LDG7); assay: in vitro activation of Rap1 (mantGDP-loaded) by full length CalDAG-GEF versus mutant lacking the regulatory domain; assay type: biochemical; settings: 100 µM calcium added; compared with mutant lacking the regulatory domain
T1 construct: To that end full length CalDAG-GEF 1 and a CalDAG-Gef mutants lacking the regulatory domain was compared
T1 sequence (Q7LDG7 1-609): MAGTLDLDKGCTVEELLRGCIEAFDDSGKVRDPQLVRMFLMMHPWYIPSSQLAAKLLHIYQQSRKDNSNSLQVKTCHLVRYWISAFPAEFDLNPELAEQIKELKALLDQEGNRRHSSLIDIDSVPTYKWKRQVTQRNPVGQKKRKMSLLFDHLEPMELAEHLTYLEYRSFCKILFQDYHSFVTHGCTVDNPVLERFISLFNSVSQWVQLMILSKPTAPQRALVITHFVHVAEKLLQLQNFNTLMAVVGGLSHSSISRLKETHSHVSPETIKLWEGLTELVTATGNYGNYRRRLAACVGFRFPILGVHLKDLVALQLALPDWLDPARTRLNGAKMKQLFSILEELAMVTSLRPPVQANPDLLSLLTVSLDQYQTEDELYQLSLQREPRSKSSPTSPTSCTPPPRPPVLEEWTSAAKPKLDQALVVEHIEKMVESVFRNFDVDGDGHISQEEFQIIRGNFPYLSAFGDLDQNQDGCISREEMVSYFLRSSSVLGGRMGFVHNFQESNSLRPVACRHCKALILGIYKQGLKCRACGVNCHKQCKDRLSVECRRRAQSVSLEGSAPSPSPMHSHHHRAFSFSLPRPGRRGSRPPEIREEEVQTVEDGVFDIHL
Description: We therefore investigated whether CalDAG-GEF was regulated by an auto-inhibitory domain. To that end full length CalDAG-GEF 1 and a CalDAG-Gef mutants lacking the regulatory domain was compared for in vitro activation of Rap1.
Figure 9. CalDAG-GEF contains an autoinhibitory domain regulated by calcium. Equal amounts of CalDAG-GEF and mutant CalDAG-GEF lacking the DAG and Ca binding domains were incubayed with mantGDP-loaded Rap1 and incubated in the presence or absence of 100 µM calcium.

[1] = target: catalytic domain of Epac1 (Homo sapiens, UniProt O95398)
Sequence of catalytic domain of Epac1 (O95398 44-371): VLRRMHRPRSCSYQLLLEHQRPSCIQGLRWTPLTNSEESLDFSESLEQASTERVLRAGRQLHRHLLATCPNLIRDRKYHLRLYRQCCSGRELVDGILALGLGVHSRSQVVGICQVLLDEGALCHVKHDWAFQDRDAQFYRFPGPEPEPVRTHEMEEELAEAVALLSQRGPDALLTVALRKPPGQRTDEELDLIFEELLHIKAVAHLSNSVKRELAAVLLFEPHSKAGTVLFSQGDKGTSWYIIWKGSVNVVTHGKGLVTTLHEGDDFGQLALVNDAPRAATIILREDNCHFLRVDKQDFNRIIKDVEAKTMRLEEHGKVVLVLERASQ
Description: Next we investigated whether a direct covalent linkage between the catalytic domain and the B-site is essential for this regulation, or whether they can function as separate domains. We therefore isolated the regulatory domains of both Epac1 and Epac2 and incubated them with the corresponding catalytic domains.
For purification of Glutathione S-transferase (GST) -fusion constructs all cDNAs were cloned in pGEX bacterial expression vectors. […] The GST fusion construct of Repac contains amino acids 2-580. The catalytic domain CalDAG-GEFI contains amino acids 3-422. The catalytically active PDZ-GEF1 construct contains amino acids 251-1001. The GST-PKA fusion construct used contained the R1a-subunit of Bovine PKA, lacking amino acids 1-91. Protein production was induced in Bl-21 bacteria using 100 nM IPTG for 20 h at room temperature. After protein production, bacteria were pelleted and lyzed in ice-cold PBS containing 1% Triton-X100 and protease inhibitors. The lysate was sonicated three times for 10 seconds and centrifuged at 10,000 x g to remove insoluble material. […]
Briefly, 100 nM of purified GTPase, loaded with fluorescently labeled 2',3'-bis (O) -N-methylantharanoloyl-guanosinediphosphate(mantGDP), was incubated, in the presence of excess unlabelled GDP, with 50 nM of purified GEF unless indicated differently. Release of mGDP was measured in realtime as a decrease in fluorescence. […]

[2] = target: catalytic domain of Epac2 (Mus musculus, UniProt Q9EQZ6)
Sequence of catalytic domain of Epac2 (Q9EQZ6 478-1011): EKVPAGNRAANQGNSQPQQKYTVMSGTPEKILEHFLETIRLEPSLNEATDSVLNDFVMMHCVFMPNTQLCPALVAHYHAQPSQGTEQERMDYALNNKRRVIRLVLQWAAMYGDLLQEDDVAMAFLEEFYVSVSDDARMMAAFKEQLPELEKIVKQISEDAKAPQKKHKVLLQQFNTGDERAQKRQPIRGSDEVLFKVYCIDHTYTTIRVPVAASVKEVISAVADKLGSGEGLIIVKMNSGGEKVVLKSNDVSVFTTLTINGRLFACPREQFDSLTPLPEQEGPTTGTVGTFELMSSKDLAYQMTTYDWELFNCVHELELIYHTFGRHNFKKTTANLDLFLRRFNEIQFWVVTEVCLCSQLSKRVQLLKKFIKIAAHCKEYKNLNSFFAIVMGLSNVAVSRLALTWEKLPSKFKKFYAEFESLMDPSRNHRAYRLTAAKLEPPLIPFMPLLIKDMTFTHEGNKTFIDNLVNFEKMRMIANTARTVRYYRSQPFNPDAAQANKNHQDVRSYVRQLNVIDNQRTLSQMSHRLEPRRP
Sequence of catalytic domain of Epac2 (Q9EQZ6 1-463 isoform Q9EQZ6-3 partner): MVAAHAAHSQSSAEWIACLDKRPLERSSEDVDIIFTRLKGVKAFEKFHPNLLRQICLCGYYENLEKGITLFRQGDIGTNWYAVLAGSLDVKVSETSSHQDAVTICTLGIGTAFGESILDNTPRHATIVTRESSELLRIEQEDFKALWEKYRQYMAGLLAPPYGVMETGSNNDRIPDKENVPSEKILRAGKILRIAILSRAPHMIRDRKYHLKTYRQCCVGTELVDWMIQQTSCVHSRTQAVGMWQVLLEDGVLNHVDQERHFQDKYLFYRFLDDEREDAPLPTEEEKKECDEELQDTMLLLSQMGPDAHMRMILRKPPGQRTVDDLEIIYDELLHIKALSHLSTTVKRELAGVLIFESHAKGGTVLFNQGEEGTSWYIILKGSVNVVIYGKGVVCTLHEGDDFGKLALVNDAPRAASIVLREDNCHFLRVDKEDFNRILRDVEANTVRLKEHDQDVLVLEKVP
Description: We therefore isolated the regulatory domains of both Epac1 and Epac2 and incubated them with the corresponding catalytic domains.
Protein production was induced in Bl-21 bacteria using 100 nM IPTG for 20 h at room temperature. After protein production, bacteria were pelleted and lyzed in ice-cold PBS containing 1% Triton-X100 and protease inhibitors. The lysate was sonicated three times for 10 seconds and centrifuged at 10,000 x g to remove insoluble material. GST-fusion proteins we purified from the cleared lysate by batch-wise incubation with glutathione-agarose beads (Sigma), eluted from the beads in buffer containing 50 mM Tris pH 7.5, 100 mM NaCl, 10% glycerol and 10mM glutathione and dialyzed for 20 hours in the same buffer without glutathione. When indicated, proteins were cleaved from the GST-tag by incubation with thrombin and purified by gelfiltration.
Briefly, 100 nM of purified GTPase, loaded with fluorescently labeled 2',3'-bis (O) -N-methylantharanoloyl-guanosinediphosphate(mantGDP), was incubated, in the presence of excess unlabelled GDP, with 50 nM of purified GEF unless indicated differently. Release of mGDP was measured in realtime as a decrease in fluorescence. To calculate reaction rates, single exponential functions were fit using the program Grafit3.0 (Eritacus). […]

[Cl][Mn][Cl] [Mn^2+, MnCl2]
increase in mAB 24 expression (LFA-1): 2.25-2.5 fold

CCCCCCCCCCCCCC(=O)O[C@@H]1[C@@H](C)[C@@]2(O)[C@@H](C=C(CO)C[C@]3(O)C(=O)C(C)=C[C@@H]23)[C@@H]2C(C)(C)[C@]12OC(C)=O [TPA]
activation of Rap1 (Rap1): activated
activation of Ras (Ras): activated

[Ca+2] [calcium]
efficiency of full length CalDAG-GEF in activating Rap1 (full length CalDAG-GEF 1): became as efficient as the mutant

Nc1ncnc2c1ncn2[C@@H]1O[C@@H]2COP(=O)(O)O[C@H]2[C@H]1O [cAMP]
effect on inhibition of the catalytic domain by the regulatory domain [1]: abolishes the inhibitory effect
effect on inhibition of the catalytic domain by the regulatory domain [2]: abolishes the inhibitory effect
